These results are taken from patent publication US6087373A, “Thrombin inhibitors” (Merck & Co., Inc., priority 1998, dated 2000).

Where a SMILES comes first, the peptide text is derived from it. [ ]: non-standard residue; d: D form. The star is where a group is joined. pNA = O=[N+]([O-])c1ccc(N*)cc1; Sar = CNCC(=O)O

The target in the first assay is T1, human a-thrombin (Homo sapiens, UniProt P00734).
T1 construct: human a-thrombin
Put plainly: In vitro assay for determining proteinase inhibition (human a-thrombin, hydrolysis of p-nitroanilide or fluorogenic substrate). It is filed as biochemical. Conditions: 25° C., 0.05 M TRIS buffer pH 7.4, 0.15 M NaCl, 0.1% PEG. Here is the method: In vitro assay for determining proteinase inhibition
(§1) Assays of human a-thrombin and human trypsin were performed at 25° C. in 0.05 M TRIS buffer pH 7.4, 0.15 M NaCl, 0.1% PEG. Trypsin assays also contained 1 mM CaCl2.
Concentrations of stock solutions of Z-GPR-afc were determined from measurements of absorbance at 380 nm of the 7-amino-4-trifluoromethylcoumarin produced upon complete hydrolysis of an aliquot of the stock solution by thrombin.
Activity assays were performed by diluting a stock solution of substrate at least tenfold to a final concentration ≤0.5 Km into a solution containing enzyme or enzyme equilibrated with inhibitor. Times required to achieve equilibration between enzyme and inhibitor were determined in control experiments. Initial velocities of product formation in the absence (Vo) or presence of inhibitor (Vi) were measured. Assuming competitive inhibition, and that unity is negligible compared Km /[S], […] (where [S], [I], and e respectively represent the total concentrations, of substrate, inhibitor and enzyme), the equilibrium constant (Ki) for dissociation of the inhibitor from the enzyme can be obtained from the dependence of Vo /Vi on [I] shown in equation 1.
In turn, `Cc1nc(N)ccc1CNC(=O)Cn1c(C)cc2c(c1=O)NC(=O)C(Cc1cc(F)cc(F)c1)C2` (stereo not drawn) came in with a Ki of 1.5 nM.
In turn, `Cc1nc(N)ccc1CNC(=O)Cn1c(C)cc2c(c1=O)NC(=O)C(Cc1cc(F)ccc1F)C2` (stereo not drawn) returned a Ki of 0.64 nM.
Regarding `Cc1nc(N)ccc1CNC(=O)Cn1c(C)cc2c(c1=O)NC(=O)C(Cc1cccc(F)c1)C2` (stereo not drawn), affinity was put at a Ki of 1.1 nM.
Compound `CC[C@H](C)CC1Cc2cc(C)n(CC(=O)NCc3ccc(N)nc3C)c(=O)c2NC1=O` (stereo partly drawn) returned a Ki of 0.52 nM. This Ki is about 2.1-fold lower than that of the compound before.
`Cc1nc(N)ccc1CNC(=O)Cn1c(C)cc2c(c1=O)NC(=O)CC2` yielded a Ki of 350 nM.

The test system of another assay is human trypsin. Kind of assay: Substrate hydrolysis by human trypsin (Km). It is filed as biochemical. The following applies: p-nitroanilide substrate, 405 nm, 25° C., pH 7.4, 1 mM CaCl2. The protocol: as §1
For `CNCC(=O)N1CCC[C@H]1C(=O)N[C@@H](CCCNC(=N)N)C(=O)Nc1ccc([N+](=O)[O-])cc1` [sar-PR-pna, sarcosine-Pro-Arg-p-nitroanilide] (H-[Sar]-Pro-Arg-pNA), the Km was 59 µM.

For orientation: Ki means the equilibrium dissociation constant of an inhibitor or competing ligand from its target. High values mean a looser hold on the target, low ones a stronger hold on the target. The Km is the concentration of substrate that gives half-maximal velocity.
